Measured values taken from patent US10961163B2, “Compositions and methods useful for enhancing the microbial conversion of nitrate into ammonium” (The Regents of the University of California, priority 2016, dated 2021).

System: microbial enrichment cultures
Test: Inhibitory potency (IC50) of inorganic compounds against growth and ammonium production, microbial enrichment with yeast extract
Assay type: cell-based
Settings: not given

Molecule	NH4^+ IC50/growth IC50 ratio
CC(=O)c1ccc(O)cc1 [4-Hydroxyacetophenone]	1.3700
Cl.N [Ammonium chloride]	1.0157
N.N.O.O=S(O)O [Ammonium sulfite monohydrate]	2.0739
O.O.O.O.O.[Cd+2].[Cd+2].[Cl-].[Cl-].[Cl-].[Cl-] [Cadmium chloride hemipentahydrate]	0.2809
[Ce+3].[Cl-].[Cl-].[Cl-] [Cerium(III) chloride]	0.0189
[Cl-].[Cs+] [Cesium chloride]	30.1708
O.O.O.O.O.O.[Cl][Cr]([Cl])[Cl] [Chromium(III) Chloride Hexahydrate]	0.0003
O.O.O.O.O.O.[Cl-].[Cl-].[Co+2] [Cobalt chloride hexahydrate]	22.1846
[Cl-].[Cl-].[Cl-].[Eu+3] [Europium(III) chloride]	0.1036
[Cl-].[Cl-].[Cl-].[Ga+3] [Gallium(III)chloride]	1.0037
Cl.NO [Hydroxylamine hydrochloride]	0.3854
[Cl][Pb][Cl] [Lead(II)chloride]	0.0174
[Cl-].[Li+] [Lithium chloride]	3.4054
[Cl-].[K+] [Potassium Chloride]	0.4776
O.O=[Te]([O-])[O-].[K+].[K+] [Potassium tellurite hydrate]	0.1044
O=S(=O)([O-])CCBr.[Na+] [Sodium 2-bromoethanesulfonate]	5.3024
[Na+].[O-][Cl+2]([O-])[O-] [Sodium Chlorate]	1.9090
[Cl-].[Na+] [Sodium Chloride]	21.9487
O.O.O.O.O.O.O.O=[As]([O-])([O-])O.[Na+].[Na+] [Sodium arsenate dibasic heptahydrate]	3.2618
O=C([O-])O.[Na+] [Sodium bicarbonate]	0.3242
O=C([O-])[O-].[Na+].[Na+] [Sodium carbonate]	0.5039
C[C@H](CCC(=O)[O-])[C@H]1CC[C@H]2[C@@H]3[C@H](O)C[C@@H]4C[C@H](O)CC[C@]4(C)[C@H]3C[C@H](O)[C@]12C.O.[Na+] [Sodium cholate hydrate]	5.9537
O=[As][O-].[Na+] [Sodium m-arsenite]	3.9664
CS(=O)(=O)[O-].[Na+] [Sodium methanesulfonate]	0.4289
[Na+].[Na+].[O]=[Mo](=[O])([O-])[O-] [Sodium molybdate]	6.7259
O=[N+]([O-])[O-].[Na+] [Sodium nitrate]	3.4080
O=NO [Sodium nitrite]	0.3023

Molecule	NH4^+ IC50/growth IC50 ratio
[O-][Cl+3]([O-])([O-])O [Sodium perchlorate monohydrate]	5.2779
[Na+].[O-][I+3]([O-])([O-])[O-] [Sodium periodate]	7.8824
O.O=P([O-])(O)O.[Na+] [Sodium phosphate monobasic monohydrate]	0.3418
O=[PH](O)O [Sodium phosphite dibasic pentahydrate]	1.3336
O=[Se](=O)(O)O [Sodium selenate]	10.0581
O.O.O.O.O.O=[Se]([O-])[O-].[Na+].[Na+] [Sodium selenite pentahydrate]	0.2998
O=S(=O)([O-])[O-].[Na+].[Na+] [Sodium sulfate]	1.0000
O.O.O.O.O.O=S([O-])([O-])=S.[Na+].[Na+] [Sodium thiosulfate pentahydrate]	0.5741
[Cl-].[Cl-].[Sr+2] [Strontium chloride]	3.3568
CC(=O)[O-].[Tl+] [Thallium(I) acetate]	0.3751
[Cl-].[Cl-].[Zn+2] [Zinc chloride]	0.1037
O=[Te](=O)([O-])[O-].[K+].[K+] [potassium tellurate]	1.7673
[Cl-].[Rb+] [rubidium chloride]	1.4483
O=S(=O)([O-])[O-].[Ag+].[Ag+] [silver sulfate]	1.9192
[Br-].[Na+] [sodium bromide]	0.5766
[F-].[Na+] [sodium fluoride]	1.6628
[I-].[Na+] [sodium iodide]	0.2617
O=S([O-])[O-].[Na+].[Na+] [sodium sulfite]	2.4699
Barium chloride dihydrate	0.1756
Calcium chloride dihydrate	0.1455
Manganese (II) chloride tetrahydrate	0.0037
Nickel (II) chloride hexahydrate	53.6273
Sodium Chlorite	1.2683
Sodium deoxycholate monohydrate	0.0027
Sodium metavanadate	13.0898
Sodium thiophosphate tribasic hydrate	0.8963
Sodium tungstate dihydrate	1.8289

Same assay, conditions: microbial enrichment with complex carbon source (yeast extract), serial dilutions of inorganic compound; higher ratio favors ammonium production

Molecule	NH4^+ IC50/growth IC50 ratio
O=C1c2ccc(S(=O)(=O)O)cc2C(=O)c2cc(S(=O)(=O)O)ccc21 [AQDS, 9,10-Anthraquinone-2,7-disulphonic acid]	6.4905
O=C(O)CC(NCCNC(CC(=O)O)C(=O)O)C(=O)O (stereo not shown) [Ethylenediamine-N,N′-disuccinic acid]	44.3418
[Cl][Fe]([Cl])[Cl] [Ferric chloride]	0.2642
O=C(O)c1cc(O)c(O)c(O)c1 [Gallic Acid]	4.9374
O=C(O)CN(CC(=O)O)CC(=O)O [Nitrilotriacetic acid]	0.4756
[Cl][Pd][Cl] [Palladium(II) chloride]	0.4739
O=S(=O)([O-])CCS.[Na+] [Sodium 2-mercaptoethanesulfonate]	13.0401
OCl [Sodium hypochlorite]	0.0048
O=P([O-])(O)OP(=O)([O-])O.[Na+].[Na+] [Sodium pyrophosphate dibasic]	0.6988
COc1cc(CO)ccc1O [Vanillyl Alcohol]	2.0632
CS(C)(=O)=O [dimethyl sulfone]	2.0187
Aluminum chloride hydrate	0.0961
copper (II) chloride dihydrate	0.1069

System: microbial enrichment cultures
Test: Ammonium production normalized by growth (NH4+/OD ratio) of microbial enrichment cultivated on individual carbon sources
Assay type: cell-based
Settings: not given

Molecule	Ammonium/OD ratio
O.O.O=C([O-])CC(O)(CC(=O)[O-])C(=O)[O-].[Na+].[Na+].[Na+] [Trisodium citrate dihydrate]	1.73
L-tyrosine disodium salt	0.87

Same assay, conditions: average of 8 independent cultures amended with varying concentrations of the carbon source; ammonium by colorimetric (Bertholet) assay, growth by OD 600

Molecule	Ammonium/OD ratio
O=c1ccn([C@@H]2O[C@H](CO)[C@@H](O)[C@H]2O)c(=O)[nH]1 [Uridine]	0.96
OC[C@@H](O)[C@H](O)[C@@H](O)CO [Xylitol]	1.13
OC[C@H]1O[C@@H]2O[C@H]3[C@H](O)[C@@H](O)[C@@H](O[C@H]4[C@H](O)[C@@H](O)[C@@H](O[C@H]5[C@H](O)[C@@H](O)[C@@H](O[C@H]6[C@H](O)[C@@H](O)[C@@H](O[C@H]7[C@H](O)[C@@H](O)[C@@H](O[C@H]1[C@H](O)[C@H]2O)O[C@@H]7CO)O[C@@H]6CO)O[C@@H]5CO)O[C@@H]4CO)O[C@@H]3CO [a-Cyclodextrin]	1.07
O.O=C([O-])CCC(=O)C(=O)[O-].[Na+].[Na+] [a-Ketoglutaric acid disodium salt hydrate]	1.26
O[C@H]1[C@H](O)[C@@H](O)[C@H](O)[C@@H](O)[C@H]1O [m-Inositol]	1.25
D-Salicin	1.35
Gelatin	0.85
